Structures can show the parent of a compound that is named as a salt. Where two headings read alike, the source gives them in different places.
Legend:
[1] = target: GST-tagged recombinant full-length human PIM-2 (Homo sapiens (Human), UniProt Q9P1W9); assay: PIM-2 Enzyme Assay
[2] = target: recombinant rat PIM-3 (Rattus norvegicus (Rat), UniProt O70444); assay: PIM-3 Enzyme Assay; conditions: read-out: PIM-3 IC50; 30 μM ATP, 0.5 nM PIM-3
[3] = target: PIM-1 (Homo sapiens (Human), UniProt P11309); assay: PIM-1 Enzyme Assay; type: biochemical
PIM-1, sequence (P11309 whole entry, species assumed): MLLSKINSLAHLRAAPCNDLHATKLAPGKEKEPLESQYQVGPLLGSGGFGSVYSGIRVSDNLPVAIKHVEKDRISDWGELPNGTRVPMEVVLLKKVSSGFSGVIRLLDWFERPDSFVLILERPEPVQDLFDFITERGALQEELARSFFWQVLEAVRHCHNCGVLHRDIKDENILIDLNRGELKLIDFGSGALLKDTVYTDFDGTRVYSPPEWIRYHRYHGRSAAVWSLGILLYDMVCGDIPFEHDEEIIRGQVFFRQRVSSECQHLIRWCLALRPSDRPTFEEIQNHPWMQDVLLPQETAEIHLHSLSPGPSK
Procedure: The amount of radiolabeled product is then measured by liquid scintillation counting. The final buffer conditions were as follows: 20 mM K^+MOPS, pH 7.4, 10 mM MgCl2, 0.005% Tween-20, 1 mM DTT. […] Incubations were carried out for 60 min at 22° C. and quenched with 75 μL of 200 mM H3PO4, filtered through a Whatman P81 plate and washed (1×200 μL and 5×100 μL ) with 200 mM H3PO4. Liquid scintillation cocktail (50 μL ) was then added per well, and the plate was counted for 30 s/well using a TopCount NXT.
One-μL aliquots of these were then transferred to the assay mixtures above to give a final concentration of DMSO of 2%. […] For each plate, percent of control (POC) values were calculated for each well. IC50's were estimated from the POC's using a standard 4-parameter logistic model. The IC50 is defined as the concentration of inhibitor at which the POC equals 50 for the fitted curve.

[4] = read-out: PIM-2 IC50, 4 μM ATP, […] PIM-2
[5] = read-out: PIM-2 IC50, 4 μM ATP, […] PIM-2, dihydrochloride

GST-tagged recombinant full-length human PIM-2, sequence (Q9P1W9 whole entry): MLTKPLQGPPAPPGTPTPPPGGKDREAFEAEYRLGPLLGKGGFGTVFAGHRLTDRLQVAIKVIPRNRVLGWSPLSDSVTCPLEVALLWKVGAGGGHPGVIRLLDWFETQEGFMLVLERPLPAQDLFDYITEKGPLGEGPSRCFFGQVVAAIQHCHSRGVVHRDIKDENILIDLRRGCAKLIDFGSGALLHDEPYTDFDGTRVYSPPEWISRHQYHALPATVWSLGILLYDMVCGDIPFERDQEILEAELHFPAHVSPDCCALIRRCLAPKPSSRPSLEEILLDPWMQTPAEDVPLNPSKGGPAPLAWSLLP

SMILES | IC50 [1, 4] [nM] | IC50 ([3]; 35 μM ATP, 0.25 nM PIM-1) [nM] | other results
FCCN1CCC(F)(COc2cccc3ccc(-c4nnc5ccccn45)nc23)CC1 [Example 105, 2-([1,2,4]triazolo[4,3-a]pyridin-3-yl)-8-((4-fluoro-1-(2-fluoroethyl)piperidin-4-yl)methoxy)quinoline dihydrochloride] | 409 | 8.7 | 
F[C@@H]1CCNCC[C@H]1Oc1cccc2ccc(-c3nnc4ccc(C5CC5)cn34)nc12 (relative stereo) [Example 98, 2-(6-cyclopropyl-[1,2,4]triazolo[4,3-a]pyridin-3-yl)-8-((trans)-5-fluoroazepan-4-yloxy)quinoline dihydrochloride] | 661 | 0.7 | 
CC(C)(CN)COc1c(Br)ccc2ccc(-c3nnc4ccccn34)nc12 [Example 58, 3-(2-([1,2,4]triazolo[4,3-a]pyridin-3-yl)-7-bromoquinolin-8-yloxy)-2,2-dimethylpropan-1-amine dihydrochloride] | 204 |  | IC50 [3]: 10 nM
FC1CNCCC1Oc1cccc2ccc(-c3nnc4ccccn34)nc12 (single isomer, unassigned) [Example 94, 2-([1,2,4]triazolo[4,3-a]pyridin-3-yl)-8-((cis)-3-fluoropiperidin-4-yloxy)quinoline dihydrochloride] |  |  | IC50 ([3]; dihydrochloride): 19.4 nM; IC50 [1, 5]: 1000 nM
F[C@@H]1CNCC[C@@H]1Oc1cccc2ccc(-c3nnc4cc(Cl)ccn34)nc12 [Example 124, 2-(7-chloro-[1,2,4]triazolo[4,3-a]pyridin-3-yl)-8-((3R,4S)-3-fluoropiperidin-4-yloxy)quinoline] | 1000 | 31 | 
F[C@@H]1CNCC[C@@H]1Oc1cccc2ccc(-c3nnc4ccc(C5CC5)cn34)nc12 (relative stereo) [Example 80, 2-(6-cyclopropyl-[1,2,4]triazolo[4,3-a]pyridin-3-yl)-8-((cis)-3-fluoropiperidin-4-yloxy)quinoline dihydrochloride] | 1160 | 2 | 
N#Cc1ccc2nnc(-c3ccc4cccc(O[C@@H]5CCNCC[C@H]5F)c4n3)n2c1 (relative stereo) [Example 101, 3-(8-((trans)-5-fluoroazepan-4-yloxy)quinolin-2-yl)-[1,2,4]triazolo[4,3-a]pyridine-6-carbonitrile dihydrochloride] | 1000 | 13 | 
CC(C)C1(COc2cccc3ccc(-c4nnc5ccccn45)nc23)CCNCC1 [Example 70, 2-([1,2,4]triazolo[4,3-a]pyridin-3-yl)-8-((4-isopropylpiperidin-4-yl)methoxy)quinoline dihydrochloride] | 67 |  | IC50 [3]: 0.75 nM
FC1(COc2cccc3ccc(-c4nnc5ccc(-c6ccccc6)cn45)nc23)CCNCC1 [Example 81, 8-((4-fluoropiperidin-4-yl)methoxy)-2-(6-phenyl-[1,2,4]triazolo[4,3-a]pyridin-3-yl)quinoline dihydrochloride] | 142 |  | IC50 [3]: 0.45 nM
Fc1ccn2c(-c3ccc4cccc(OC5CCNCC5F)c4n3)nnc2c1 (stereo not drawn) [Example 60, cis-2-(7-fluoro-[1,2,4]triazolo[4,3-a]pyridin-3-yl)-8-3-fluoropiperidin-4-yloxy)quinoline] | 1760 | 26 | 
CC(C)(CN)COc1ccc(F)c2ccc(-c3nnc4ccccn34)nc12 [Example 43, 3-(2-([1,2,4]triazolo[4,3-a]pyridin-3-yl)-5-fluoroquinolin-8-yloxy)-2,2-dimethylpropan-1-amine] | 10000 | 139 | 
FC1CNCCC1Oc1cccc2ccc(-c3nnc4ccccn34)nc12 (single isomer, unassigned) [Example 97, 2-([1,2,4]triazolo[4,3-a]pyridin-3-yl)-8-((trans)-3-fluoropiperidin-4-yloxy)quinoline dihydrochloride] |  |  | IC50 ([3]; dihydrochloride): 49 nM; IC50 [1, 5]: 1000 nM
F[C@@H]1CNCC[C@@H]1Oc1cccc2ccc(-c3nnc4ccc(-c5ccccc5)cn34)nc12 (relative stereo) [Example 82, 8-((cis)-3-fluoropiperidin-4-yloxy)-2-(6-phenyl-[1,2,4]triazolo[4,3-a]pyridin-3-yl)quinoline dihydrochloride] | 1040 |  | IC50 [3]: 3 nM
CC(C)(CN)COc1cccc2ccc(-c3nnc4ccc(Br)cn34)nc12 [Example 63, 3-(2-(6-bromo-[1,2,4]triazolo[4,3-a]pyridin-3-yl)quinolin-8-yloxy)-2,2-dimethylpropan-1-amine dihydrochloride] |  |  | IC50 [3]: 0.65 nM; IC50 ([1]; read-out: PIM-2 IC50): 101 nM
c1cc(Oc2ccncc2)c2nc(-c3nnc4ccccn34)ccc2c1 [Example 74, 2-([1,2,4]triazolo[4,3-a]pyridin-3-yl)-8-(pyridin-4-yloxy)quinoline] | 1990 | 151 | 
FC1CNCCC1Oc1cccc2ccc(-c3nnc4ccccn34)nc12 (single isomer, unassigned) [Example 95, 2-([1,2,4]triazolo[4,3-a]pyridin-3-yl)-8-((cis)-3-fluoropiperidin-4-yloxy)quinoline dihydrochloride] |  |  | IC50 ([3]; dihydrochloride): 9.8 nM; IC50 [1, 5]: 482 nM
COc1ccc2nnc(-c3ccc4cc(F)cc(OCC5(F)CCNCC5)c4n3)n2c1 [Example 110, 6-fluoro-8-((4-fluoropiperidin-4-yl)methoxy)-2-(6-methoxy-[1,2,4]triazolo[4,3-a]pyridin-3-yl)quinoline dihydrochloride] | 163 | 1.9 | 

Now from value to compound, other results behind:

IC50 [1, 4] [nM] | IC50 ([3]; 35 μM ATP, 0.25 nM PIM-1) [nM] | SMILES | other results
189 |  | COC(=O)[C@@H]1C[C@@H](Oc2cccc3ccc(-c4nnc5ccccn45)nc23)CCN1 [Example 13, (2S,4S)-Methyl 4-(2-([1,2,4]triazolo[4,3-a]pyridin-3-yl)quinolin-8-yloxy)piperidine-2-carboxylate] | IC50 [2]: 9 nM
143 |  | CNCC(C)(C)COc1cccc2ccc(-c3nnc4ccccn34)nc12 [Example 28, 3-(2-([1,2,4]triazolo[4,3-a]pyridin-3-yl)quinolin-8-yloxy)-N,2,2-trimethylpropan-1-amine] | IC50 [2]: 4 nM
8940 | 263 | Nc1cc(Oc2cccc3ccc(-c4nnc5ccccn45)nc23)ccn1 [Example 75, 4-(2-([1,2,4]triazolo[4,3-a]pyridin-3-yl)quinolin-8-yloxy)pyridin-2-amine] | 
1730 | 26.9 | c1cc(OCc2ccncc2)c2nc(-c3nnc4ccccn34)ccc2c1 [Example 45, 2-([1,2,4]triazolo[4,3-a]pyridin-3-yl)-8-(pyridin-4-ylmethoxy)quinoline] | 
 | 1 | FC1CCNCCC1Oc1cccc2ccc(-c3nnc4ccccn34)nc12 (stereo not shown) [Example 46, 2-([1,2,4]triazolo[4,3-a]pyridin-3-yl)-8-(5-fluoroazepan-4-yloxy)quinoline] | IC50 ([1]; PIM-2 IC50 (nM), 4 μM ATP, […] PIM-2): 96 nM
574 | 1.3 | CN1CCC(F)C(Oc2cccc3ccc(-c4nnc5ccccn45)nc23)CC1 (stereo not shown) [Example 119] | 
10000 | 648 | Nc1nccc(Oc2cccc3ccc(-c4nnc5ccccn45)nc23)n1 [Example 76, 4-(2-([1,2,4]triazolo[4,3-a]pyridin-3-yl)quinolin-8-yloxy)pyrimidin-2-amine] | 
354 | 14.2 | c1cc(OCC2CNCCO2)c2nc(-c3nnc4ccccn34)ccc2c1 (stereo not shown) [Example 126] | 
193 | 4 | NC(=O)CN1CCC(F)(COc2cccc3ccc(-c4nnc5ccccn45)nc23)CC1 [Example 83, 2-(4-((2-([1,2,4]triazolo[4,3-a]pyridin-3-yl)quinolin-8-yloxy)methyl)-4-fluoropiperidin-1-yl)acetamide] | 
330 | 3 | CN1CC[C@@H](F)[C@H](Oc2cccc3ccc(-c4nnc5ccccn45)nc23)CC1 (relative stereo) [Example 118, 2-([1,2,4]triazolo[4,3-a]pyridin-3-yl)-8-((trans)-5-fluoro-1-methylazepan-4-yloxy)quinoline] | 
1000 | 9.4 | FC1(COc2cccc3ccc(-c4nnc5ccccn45)nc23)CNC1 [Example 107, 2-([1,2,4]triazolo[4,3-a]pyridin-3-yl)-8-((3-fluoroazetidin-3-yl)methoxy)quinoline dihydrochloride] | 
484 | 4 | COC[C@@H]1CC(Oc2cccc3ccc(-c4nnc5ccccn45)nc23)CCN1 (stereo partly shown) [Example 57] | 
191 | 3.9 | CCN1CCC(F)(COc2cccc3ccc(-c4nnc5ccccn45)nc23)CC1 [Example 104, 2-([1,2,4]triazolo[4,3-a]pyridin-3-yl)-8((1-ethyl-4-fluoropiperidin-4-yl)methoxy)quinoline dihydrochloride] | 
142 | 1.6 | FC1(COc2cccc3ccc(-c4nnc5ccccn45)nc23)CCCNC1 (stereo not shown) [Example 133, 2-([1,2,4]triazolo[4,3-a]pyridin-3-yl)-8-((3-fluoropiperidin-3-yl)methoxy)quinoline] | 
55 | 0.2 | FC1(COc2cccc3ccc(-c4nnc5ccc(C6CC6)cn45)nc23)CCNCC1 [Example 79, 2-(6-cyclopropyl-[1,2,4]triazolo[4,3-a]pyridin-3-yl)-8-((4-fluoropiperidin-4-yl)methoxy)quinoline dihydrochloride] | 
